Assay: Purity and stability test (content by HPLC after sealed storage)
Assay type: physicochemical
Details: for Content of the intial sample: HPLC content before storage; for Content of the sample stored at 25° C. for 14 days: sealed storage at 25° C. for 14 days, content by HPLC
Experimental: The purity was detected by high performance liquid chromatography (HPLC) method. HPLC method was performed according to the method reported in Journal of Industrial Microbiology & Biotechnology (2001), 26, 216-221; the normal phase HPLC is employed:
silica gel column: 4.6 mm*250 mm;
Mobile phase: ethyl acetate:methanol:water=84:9:7 (V/V/V);
Detection wavelength: 278 nm.
The purity and stability of samples prepared in the comparative example and examples 1-4 were compared. The method is described as follows:
The samples from comparative-example, example 1, example 2, example 3 and example 4 were obtained separately and kept at 25° C. for 14 days in sealed storage. And then the contents of the samples were tested by HPLC.

SMILES | Content of the intial sample | Content of the sample stored at 25° C. for 14 days | stability compared with crystal A and amorphous powder (25° C., 14 days, sealed storage)
CCC(C)CC(C)CCCCCCCCC(=O)NC1CC(O)[C@@H](O)NC(=O)[C@H]2[C@@H](O)CCN2C(=O)[C@H](C(O)CC(N)=O)NC(=O)C(C(O)C(O)c2ccc(O)cc2)NC(=O)[C@@H]2C[C@@H](O)CN2C(=O)[C@H](C(C)O)NC1=O (some centres unmarked) [Example 4] | 99.8% | 99.5% | 
CCC(C)CC(C)CCCCCCCCC(=O)NC1CC(O)[C@@H](O)NC(=O)[C@H]2[C@@H](O)CCN2C(=O)[C@H](C(O)CC(N)=O)NC(=O)C(C(O)C(O)c2ccc(O)cc2)NC(=O)[C@@H]2C[C@@H](O)CN2C(=O)[C@H](C(C)O)NC1=O (some centres unmarked) [Example 3] | 99.8% | 99.5% | 
CCC(C)CC(C)CCCCCCCCC(=O)NC1CC(O)[C@@H](O)NC(=O)[C@H]2[C@@H](O)CCN2C(=O)[C@H](C(O)CC(N)=O)NC(=O)C(C(O)C(O)c2ccc(O)cc2)NC(=O)[C@@H]2C[C@@H](O)CN2C(=O)[C@H](C(C)O)NC1=O (some centres unmarked) [Example 2] | 99.8% | 99.6% | 
CCC(C)CC(C)CCCCCCCCC(=O)NC1CC(O)[C@@H](O)NC(=O)[C@H]2[C@@H](O)CCN2C(=O)[C@H](C(O)CC(N)=O)NC(=O)C(C(O)C(O)c2ccc(O)cc2)NC(=O)[C@@H]2C[C@@H](O)CN2C(=O)[C@H](C(C)O)NC1=O (some centres unmarked) [Example 1] | 96.1% | 93.5% | 
CCC(C)CC(C)CCCCCCCCC(=O)NC1CC(O)[C@@H](O)NC(=O)[C@H]2[C@@H](O)CCN2C(=O)[C@H](C(O)CC(N)=O)NC(=O)C(C(O)C(O)c2ccc(O)cc2)NC(=O)[C@@H]2C[C@@H](O)CN2C(=O)[C@H](C(C)O)NC1=O (some centres unmarked) [Comparative example, reference compound] | 97.7% | 95.6% | 
CCC(C)CC(C)CCCCCCCCC(=O)NC1CC(O)[C@@H](O)NC(=O)[C@H]2[C@@H](O)CCN2C(=O)[C@H](C(O)CC(N)=O)NC(=O)C(C(O)C(O)c2ccc(O)cc2)NC(=O)[C@@H]2C[C@@H](O)CN2C(=O)[C@H](C(C)O)NC1=O (some centres unmarked) [crystal B of the compound of formula I] |  |  | better stability

Reference: patent publication US8969309B2, “Crystal of peptide substance as well as the preparation method and use thereof” (Shanghai Techwell Biopharmaceutical Co., Ltd., priority 2010, dated 2015)
